Data on 29 compounds can be found in US8846933B2, “N-link hydroxamic acid derivatives useful as antibacterial agents” (Pfizer Inc., priority 2009, dated 2014).

In experiment [1] the test system is Escherichia coli EC-1: VOGEL, mouse virulent. Description: MIC determination (CLSI), strain EC-1. In kind it is cell-based. The following applies: strain EC-1; unit assumed. The method, boiled down: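 The mouse-virulent VOGEL isolate of E. coli, EC-1, served as test organism. Minimum inhibitory concentration was measured by CLSI dilution methodology (M7-A7; M100-S18 standards).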

Experiment [2] relates to Pseudomonas aeruginosa UI-18: Wild-type (PA-7). Description: MIC determination (CLSI), strain PA-7. In kind it is cell-based. As to conditions: strain PA-7; unit assumed. The method, boiled down: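 MIC determined by broth dilution per CLSI M7-A7 guidelines with M100-S18 interpretive standards. Test organism: wild-type Pseudomonas aeruginosa UI-18, designated PA-7.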

As to `CC(CCn1ccc(-c2ccc(OCCCN3CCOCC3)cc2F)cc1=O)(C(=O)NO)S(C)(=O)=O` (stereo not shown) [Example 226, 4-{4-[2-fluoro-4-(3-morpholin-4-ylpropoxy)phenyl]-2-oxopyridin-1(2H)-yl}-N-hydroxy-2-methyl-2-(methylsulfonyl)butanamide], the EC-1 (MIC) in experiment [1] is 2 µg/mL. In experiment [2], this compound gave a PA-7 (MIC) of 8 µg/mL.
With `COc1cc(-c2ccn(CCC(C)(C(=O)NO)S(C)(=O)=O)c(=O)c2)ccc1OCCCN1CCOCC1` (stereo not shown) [Example 227, N-hydroxy-4-{4-[3-methoxy-4-(3-morpholin-4-ylpropoxy)phenyl]-2-oxopyridin-1(2H)-yl}-2-methyl-2-(methylsulfonyl)butanamide], the EC-1 (MIC) in experiment [1] came to 64 µg/mL. Also, the PA-7 (MIC) in experiment [2] was found to be 64 µg/mL.
In turn, `Cc1cc(OCCCN2CCOCC2)ccc1-c1ccn(CCC(C)(C(=O)NO)S(C)(=O)=O)c(=O)c1` (stereo not shown) [Example 228, N-hydroxy-2-methyl-4-{4-[2-methyl-4-(3-morpholin-4-ylpropoxy)phenyl]-2-oxopyridin-1(2H)-yl}-2-(methylsulfonyl)butanamide] showed an EC-1 (MIC) in experiment [1] of 8 µg/mL. The PA-7 (MIC) in experiment [2] was 16 µg/mL.
The compound `CC(CCn1ccc(-c2ccc(OCCCCCO)cc2)cc1=O)(C(=O)NO)S(C)(=O)=O` (stereo not shown) [Example 229, N-hydroxy-4-[4-{4-[(5-hydroxypentyl)oxy]phenyl}-2-oxopyridin-1(2H)-yl]-2-methyl-2-(methylsulfonyl)butanamide] returned an EC-1 (MIC) in experiment [1] of 0.25 µg/mL. The same compound showed a PA-7 (MIC) in experiment [2] of 2 µg/mL.
`CC(CCn1ccc(-c2ccc(S(N)(=O)=O)cc2)cc1=O)(C(=O)NO)S(C)(=O)=O` (stereo not shown) [Example 230, 4-{4-[4-(aminosulfonyl)phenyl]-2-oxopyridin-1(2H)-yl}-N-hydroxy-2-methyl-2-(methylsulfonyl)butanamide] gave an EC-1 (MIC) in experiment [1] of 64 µg/mL. Moreover, the PA-7 (MIC) in experiment [2] was greater than 64 µg/mL.
Compound `CC(O)Cc1cccc(-c2ccn(CCC(C)(C(=O)NO)S(C)(=O)=O)c(=O)c2)c1` (stereo not shown) [Example 231, N-hydroxy-4-{4-[3-(2-hydroxypropyl)phenyl]-2-oxopyridin-1(2H)-yl}-2-methyl-2-(methylsulfonyl)butanamide] registered an EC-1 (MIC) in experiment [1] greater than 64 µg/mL. In addition, in experiment [2], the PA-7 (MIC) was greater than 64 µg/mL.
In experiment [1], `CC(CCn1ccc(-c2ccc(OCCO)cc2Cl)cc1=O)(C(=O)NO)S(C)(=O)=O` (stereo not shown) [Example 232, 4-{4-[2-chloro-4-(2-hydroxyethoxy)phenyl]-2-oxopyridin-1(2H)-yl}-N-hydroxy-2-methyl-2-(methylsulfonyl)butanamide] registered an EC-1 (MIC) of 16 µg/mL. The compound further gave a PA-7 (MIC) in experiment [2] of 16 µg/mL.
In the case of `Cc1cc(-c2ccn(CCC(C)(C(=O)NO)S(C)(=O)=O)c(=O)c2)c(C)cc1OCCO` (stereo not shown) [Example 233, N-hydroxy-4-{4-[4-(2-hydroxyethoxy)-2,5-dimethylphenyl]-2-oxopyridin-1(2H)-yl}-2-methyl-2-(methylsulfonyl)butanamide], the EC-1 (MIC) in experiment [1] is greater than 64 µg/mL. In experiment [2], this compound came in with a PA-7 (MIC) greater than 64 µg/mL.
Turning to `CC(CCn1ccc(-c2ccc(OCCO)c(Cl)c2Cl)cc1=O)(C(=O)NO)S(C)(=O)=O` (stereo not shown) [Example 234, 4-{4-[2,3-dichloro-4-(2-hydroxyethoxy)phenyl]-2-oxopyridin-1(2H)-yl}-N-hydroxy-2-methyl-2-(methylsulfonyl)butanamide], the EC-1 (MIC) in experiment [1] was found to be 64 µg/mL. Also, in experiment [2], the PA-7 (MIC) came out at 32 µg/mL.
The compound `Cc1cc(-c2ccn(CCC(C)(C(=O)NO)S(C)(=O)=O)c(=O)c2)ccc1OCCO` (stereo not shown) [Example 235, N-hydroxy-4-{4-[4-(2-hydroxyethoxy)-3-methylphenyl]-2-oxopyridin-1(2H)-yl}-2-methyl-2-(methylsulfonyl)butanamide] returned an EC-1 (MIC) in experiment [1] of 8 µg/mL. In experiment [2], this compound yielded a PA-7 (MIC) of 8 µg/mL.
`CC(CCn1ccc(-c2ccc(OCCO)c(Cl)c2)cc1=O)(C(=O)NO)S(C)(=O)=O` (stereo not shown) [Example 236, 4-{4-[3-chloro-4-(2-hydroxyethoxy)phenyl]-2-oxopyridin-1(2H)-yl}-N-hydroxy-2-methyl-2-(methylsulfonyl)butanamide]: the EC-1 (MIC) in experiment [1] was determined as 32 µg/mL. Also, the PA-7 (MIC) in experiment [2] turned out to be 16 µg/mL.
In the same order, the values of `Cc1cc(OCCO)ccc1-c1ccn(CCC(C)(C(=O)NO)S(C)(=O)=O)c(=O)c1` (stereo not shown) [Example 237, N-hydroxy-4-{4-[4-(2-hydroxyethoxy)-2-methylphenyl]-2-oxopyridin-1(2H)-yl}-2-methyl-2-(methylsulfonyl)butanamide] are greater than 64 µg/mL and 32 µg/mL.
Compound `CC(CCn1ccc(-c2ccc(OCCCCO)c(Cl)c2)cc1=O)(C(=O)NO)S(C)(=O)=O` (stereo not shown) [Example 238, 4-{4-[3-chloro-4-(4-hydroxybutoxy)phenyl]-2-oxopyridin-1(2H)-yl}-N-hydroxy-2-methyl-2-(methylsulfonyl)butanamide] gave an EC-1 (MIC) in experiment [1] of 0.5 µg/mL. The compound also came in with a PA-7 (MIC) in experiment [2] of 4 µg/mL.
For `CC(CCn1ccc(-c2ccc(OCCCCO)cc2Cl)cc1=O)(C(=O)NO)S(C)(=O)=O` (stereo not shown) [Example 239, 4-{4-[2-chloro-4-(4-hydroxybutoxy)phenyl]-2-oxopyridin-1(2H)-yl}-N-hydroxy-2-methyl-2-(methylsulfonyl)butanamide], the EC-1 (MIC) in experiment [1] was found to be 1 µg/mL. The same compound showed a PA-7 (MIC) in experiment [2] of 4 µg/mL.
In experiment [1], `CC(CCn1ccc(-c2ccc(OCCCCO)c(F)c2)cc1=O)(C(=O)NO)S(C)(=O)=O` (stereo not shown) [Example 240, 4-{4-[3-fluoro-4-(4-hydroxybutoxy)phenyl]-2-oxopyridin-1(2H)-yl}-N-hydroxy-2-methyl-2-(methylsulfonyl)butanamide] yielded an EC-1 (MIC) of 1 µg/mL. The compound further yielded a PA-7 (MIC) in experiment [2] of 4 µg/mL.
In turn, `CC(CCn1ccc(-c2ccc(OCCCCO)cc2F)cc1=O)(C(=O)NO)S(C)(=O)=O` (stereo not shown) [Example 241] returned an EC-1 (MIC) in experiment [1] of 2 µg/mL. The compound further yielded a PA-7 (MIC) in experiment [2] of 2 µg/mL.
For `COc1cc(-c2ccn(CCC(C)(C(=O)NO)S(C)(=O)=O)c(=O)c2)ccc1OCCCCO` (stereo not shown) [Example 242, N-hydroxy-4-{4-[4-(4-hydroxybutoxy)-3-methoxyphenyl]-2-oxopyridin-1(2H)-yl}-2-methyl-2-(methylsulfonyl)butanamide], in experiment [1], the EC-1 (MIC) was 32 µg/mL. In experiment [2], this compound had a PA-7 (MIC) of 64 µg/mL.
In the same order, the values of `Cc1cc(OCCCCO)ccc1-c1ccn(CCC(C)(C(=O)NO)S(C)(=O)=O)c(=O)c1` (stereo not shown) [Example 243, N-hydroxy-4-{4-[4-(4-hydroxybutoxy)-2-methylphenyl]-2-oxopyridin-1(2H)-yl}-2-methyl-2-(methylsulfonyl)butanamide] are 4 µg/mL and 8 µg/mL.
For `CC(CCn1ccc(-c2cc(Cl)c(OCCO)cc2Cl)cc1=O)(C(=O)NO)S(C)(=O)=O` (stereo not shown) [Example 244, 4-{4-[2,5-dichloro-4-(2-hydroxyethoxy)phenyl]-2-oxopyridin-1(2H)-yl}-N-hydroxy-2-methyl-2-(methylsulfonyl)butanamide] the same measures were 32 µg/mL and greater than 64 µg/mL.
In experiment [1], `COc1cc(OCCCCO)ccc1-c1ccn(CCC(C)(C(=O)NO)S(C)(=O)=O)c(=O)c1` (stereo not shown) [Example 245] yielded an EC-1 (MIC) of 64 µg/mL. Moreover, in experiment [2], the PA-7 (MIC) came to 64 µg/mL.
As to `CC(CCn1ccc(-c2ccc(OCCCO)c(Cl)c2)cc1=O)(C(=O)NO)S(C)(=O)=O` (stereo not shown) [Example 246, 4-{4-[3-chloro-4-(3-hydroxypropoxy)phenyl]-2-oxopyridin-1(2H)-yl}-N-hydroxy-2-methyl-2-(methylsulfonyl)butanamide], the EC-1 (MIC) in experiment [1] is 2 µg/mL. Also, the PA-7 (MIC) in experiment [2] was 4 µg/mL.
In the same order, the values of `CC(CCn1ccc(-c2ccc(OCCCO)c(F)c2)cc1=O)(C(=O)NO)S(C)(=O)=O` (stereo not shown) [Example 247, 4-{4-[3-fluoro-4-(3-hydroxypropoxy)phenyl]-2-oxopyridin-1(2H)-yl}-N-hydroxy-2-methyl-2-(methylsulfonyl)butanamide] are 4 µg/mL and 8 µg/mL.
With `Cc1cc(-c2ccn(CCC(C)(C(=O)NO)S(C)(=O)=O)c(=O)c2)ccc1OCCCO` (stereo not shown) [Example 248, N-hydroxy-4-{4-[4-(3-hydroxypropoxy)-3-methylphenyl]-2-oxopyridin-1(2H)-yl}-2-methyl-2-(methylsulfonyl)butanamide], the EC-1 (MIC) in experiment [1] is 2 µg/mL. This compound gave a PA-7 (MIC) in experiment [2] of 4 µg/mL.
Turning to `COc1cc(-c2ccn(CCC(C)(C(=O)NO)S(C)(=O)=O)c(=O)c2)ccc1OCCCO` (stereo not shown) [Example 249, N-hydroxy-4-{4-[4-(3-hydroxypropoxy)-3-methoxyphenyl]-2-oxopyridin-1(2H)-yl}-2-methyl-2-(methylsulfonyl)butanamide], the EC-1 (MIC) in experiment [1] was greater than 64 µg/mL. In addition, the PA-7 (MIC) in experiment [2] is 64 µg/mL.
In turn, `CC(CCn1ccc(-c2ccc(OCCCO)cc2F)cc1=O)(C(=O)NO)S(C)(=O)=O` (stereo not shown) [Example 250, 4-{4-[2-fluoro-4-(3-hydroxypropoxy)phenyl]-2-oxopyridin-1(2H)-yl}-N-hydroxy-2-methyl-2-(methylsulfonyl)butanamide] yielded an EC-1 (MIC) in experiment [1] of 2 µg/mL. The PA-7 (MIC) in experiment [2] worked out at 4 µg/mL.
As for `CC(CCn1ccc(-c2ccc(OCCCO)cc2Cl)cc1=O)(C(=O)NO)S(C)(=O)=O` (stereo not shown) [Example 251, 4-{4-[2-chloro-4-(3-hydroxypropoxy)phenyl]-2-oxopyridin-1(2H)-yl}-N-hydroxy-2-methyl-2-(methylsulfonyl)butanamide], the EC-1 (MIC) in experiment [1] stood at 2 µg/mL. The PA-7 (MIC) in experiment [2] is 4 µg/mL.
For `Cc1cc(OCCCO)ccc1-c1ccn(CCC(C)(C(=O)NO)S(C)(=O)=O)c(=O)c1` (stereo not shown) [Example 252, N-hydroxy-4-{4-[4-(3-hydroxypropoxy)-2-methylphenyl]-2-oxopyridin-1(2H)-yl}-2-methyl-2-(methylsulfonyl)butanamide] the same measures were 16 µg/mL and 16 µg/mL.
On to `COc1cc(OCCCO)ccc1-c1ccn(CCC(C)(C(=O)NO)S(C)(=O)=O)c(=O)c1` (stereo not shown) [Example 253, N-hydroxy-4-{4-[4-(3-hydroxypropoxy)-2-methoxyphenyl]-2-oxopyridin-1(2H)-yl}-2-methyl-2-(methylsulfonyl)butanamide], for which the EC-1 (MIC) in experiment [1] stood at 16 µg/mL. In experiment [2], the PA-7 (MIC) was greater than 64 µg/mL.
The compound `CC(CCn1ccc(-c2ccc3ncccc3c2)cc1=O)(C(=O)NO)S(C)(=O)=O` (stereo not shown) [Example 254] displayed an EC-1 (MIC) in experiment [1] of 4 µg/mL. Besides, the PA-7 (MIC) in experiment [2] stood at 4 µg/mL.
